Patent US10028506B2, “Plant strengthener comprising a tocopherol and a boron compound” (COMPO EXPERT GMBH, priority 2013, dated 2018)

How the values were obtained:
Type in all cases: in vivo
[1] = system: apple (variety Elstar) inflorescences, severed branches; assay: Frost protection activity on apple inflorescences in frost chamber; conditions: dilute aqueous preparation (0.25 kg/ha), −2° C. for 4 hours
Experimental: (§1) For the following studies, tocopherol-comprising formulations were diluted with water to give a tocopherol concentration of 0.25% by weight.
(§2) Boroethanolamine was diluted with water to give a concentration of 0.25% by weight.
(§3) Freshly severed branches with 20 to 50 inflorescences (inflorescence stage BBCH 60-69) were used for studying the protection of inflorescences. The twigs were sprayed to runoff point with the aqueous dilution of the respective formulation, using a hand-held sprayer.
(§4) The tests of the formulations in respect of their frost protectant activity were carried out under controlled conditions in frost chambers with fruit-tree inflorescences (apple (variety Elstar), severed branches, sweet cherry (variety Hedelfinger), severed branches).
(§5) The fruit trees were treated 24 hours before the frost event by spraying the inflorescences with the dilute formulation.
(§6) (b) Treatment with formulation FV1 (0.25 g/l tocopherol),
(§7) (c) Treatment with formulation F1 (0.25 g/l tocopherol)+0.25 g/l boroethanolamine).
(§8) The branches were severed from the plant shortly before the test and then exposed to a temperature of −2° C. for a defined period (4 hours). On the following day, the relative number of the inflorescences with frost damage was determined visually. Damage was considered to be browning of the floral tissue (pedicel and ovaries).

[2] = system: tangerine trees cv. "satsuma" fruits; assay: Protection against sun-scorch, field experiments on tangerines (satsumas); conditions: dilute aqueous preparation (0.25 kg/ha); tangerines field experiment
Experimental: For the field experiments, the formulations were diluted with tap water in an amount of 100 l per kg of formulation. The plants were sprayed with the aqueous dilution with the aid of a commercially available plant protection sprayer at an application rate of 0.25 kg tocopherol/ha. The study was carried out in a fruit plantation in South Africa (Western Cape region, Simondium) in February. To this end, tangerine trees cv. “satsuma” were sprayed with an aqueous dilution of formulation F2 or formulation FV2 6 days before the harvest in two adjacent plots, in parallel experiments. The controls used were in each case untreated trees of the same plot. To determine the damage, in each case approximately 30 fruits were harvested from each tree of the treated trees and of the untreated trees and then observed. The proportion of damaged fruits of the treated trees and of the untreated trees of the respective experiment was determined, and the percentage reduction in damage was determined on this basis. Damage was considered to be yellowish discolorations of the green fruit skin.

[3] = system: sweet cherry (variety Hedelfinger) inflorescences, severed branches; assay: Frost protection activity on sweet cherry inflorescences in frost chamber; conditions: dilute aqueous preparation (0.25 kg/ha), −2° C. for 4 hours
Experimental: as §1, §2, §3, §4, §5, §6, §7, §8

[4] = system: apple trees cv. "Granny Smith" fruits; assay: Protection against sun-scorch, field experiments on apples; conditions: dilute aqueous preparation (0.25 kg/ha); apples field experiment
Experimental: For the field experiments, the formulations were diluted with tap water in an amount of 100 l per kg of formulation. The plants were sprayed with the aqueous dilution with the aid of a commercially available plant protection sprayer at an application rate of 0.25 kg tocopherol/ha. The study was carried out in an apple plantation in South Africa (Somerset-West region) in February. To this end, apple trees cv. “Granny Smith” were sprayed with an aqueous dilution of formulation F2 or formulation FV2 8 days before the harvest in two adjacent plots, in parallel experiments. The controls used were in each case untreated trees of the same plot. To determine the damage, in each case approximately 30 fruits were harvested from each tree of the treated trees and of the untreated trees and then observed. The proportion of damaged fruits of the treated trees and of the untreated trees of the respective experiment was determined, and the percentage reduction in damage was determined on this basis. Damage was considered to be reddish and brownish discolorations of the fruit skin.

NCCOB(O)O [boroethanolamine]
no significant change over the control: change in frost damage over the control [1] | change in sun-scorch damage over the control [2] | change in frost damage over the control [3] | change in sun-scorch damage over the control [4]
